Experiments:
Type in all cases: functional, organism-based
Conditions in all cases: 3D7
Plasmodium falciparum [1] = assay: MMV: 3H-Hyoxanthine uptake assay; RPMI 1640 (Invitrogen cat#11875-093) with Sodium Bicarbonate (NaHCO3) […].
Plasmodium falciparum [2] = assay: MMV: Modified 3H-Hyoxanthine uptake assay; RPMI 1640 (Invitrogen cat#23400-013) without Sodium Bicarbonate (NaHCO3).
Plasmodium falciparum [3] = assay: MMV: 3H-Hyoxanthine uptake assay; 5% O2, 5% CO2 in N2.
Plasmodium falciparum [4] = assay: MMV: Modified 3H-Hyoxanthine uptake assay; 1% O2, 5% CO2 in N2.

| SMILES | IC50 (Plasmodium falciparum [1]) | IC50 (Plasmodium falciparum [2]) | IC50 (Plasmodium falciparum [3]) | IC50 (Plasmodium falciparum [4]) |
| --- | --- | --- | --- | --- |
| CN1CCN(c2ccc(Nc3c4ccccc4nc4ccccc34)cc2)CC1 | 0.098 µM | 0.269 µM | 0.117 µM | 0.076 µM |
| CN(C)CCCNc1c2ccccc2nc2ccccc12 | 0.19 µM | 0.594 µM | 0.36 µM | 0.059 µM |
| CCN1CCCC1CNc1[nH]cnc2c3cc(Cl)ccc3nc1-2 (configuration not stated) | > 1 µM | > 1 µM | > 1 µM | > 1 µM |
| COc1ccc(-c2c(C)nn3c(N)c(C#N)cnc23)cc1OC | 0.33 µM | 0.457 µM |  |  |
| CSC1=NC(=Nc2c(C)cccc2C)C2(CCC(C(C)(C)C)CC2)N1c1ccc(Cl)cc1 (configuration not stated) | > 1 µM | > 1 µM | > 1 µM | > 1 µM |
| Cc1cc(C)cc(Nc2cc(C)nc3nc(C(F)(F)F)nn23)c1 | 0.059 µM | 0.132 µM | 0.081 µM | 0.047 µM |
| O=C(NCC(c1ccsc1)N1CCCCCC1)c1ccc(C(F)(F)F)cc1 (configuration not stated) | 0.425 µM | 1.12 µM |  |  |
| Cc1ccc(-c2cc3c(SCC(=O)Nc4cc(C(F)(F)F)ccc4Cl)nccn3n2)cc1 | > 0.5 µM | > 0.5 µM | > 0.5 µM | > 0.5 µM |
| CCN(CC)CCNc1ncnc2c1[nH]c1ccc(Cl)cc12 | 0.326 µM | 0.851 µM | 0.314 µM | 0.266 µM |
| CCOC(=O)c1cnc2ccc(CC)cc2c1O | 0.301 µM | 0.408 µM | > 1 µM | > 1 µM |
| Cc1ccc(-c2cc3c(nn2)-c2ccccc2C3=O)cc1 | > 0.5 µM | > 0.5 µM | > 0.5 µM | > 0.5 µM |
| CCN(CC)CCNc1ccnc2cc(Cl)ccc12 | 0.046 µM | 0.094 µM | 0.04 µM | 0.018 µM |
| Cc1ccc(Nc2nc(-c3ccccn3)cs2)cc1 | > 1 µM | > 1 µM | > 1 µM | > 1 µM |
| CCCCCC(=O)N1c2ccccc2N=C2CC(c3ccc(OC)c(OC)c3)CC(O)=C2C1c1ccc(C(F)(F)F)cc1 (configuration not stated) | 0.129 µM | 0.144 µM |  |  |
| Cc1cc(NCCN2CCCCC2)c2ccc3ccccc3c2n1 | 0.127 µM | 0.219 µM | 0.489 µM | 0.132 µM |
| COc1ccc(-n2ccnc2SCC(=O)Nc2cc(C)ccc2C)c(OC)c1 | > 1 µM | > 1 µM | 0.793 µM | 0.431 µM |
| CCN1CCN(Cc2ccc(NC(=O)c3cc4ccc5cccnc5c4[nH]3)cc2)CC1 | 0.582 µM | 0.674 µM | 0.422 µM | 0.497 µM |
| COc1ccc(-c2nc(NC(=O)CS(=O)(=O)c3ccc(F)cc3)sc2C)cc1 | 0.192 µM | 0.464 µM |  |  |
| O=C(O)C1Cc2c([nH]c3ccccc23)C(c2ccc(Cl)cc2Cl)N1 (configuration not stated) | > 1 µM | > 1 µM | > 1 µM | > 1 µM |
| Cc1ccc(N2C(=O)C3C(C2=O)C2(c4ccccc4)C(=O)C3(c3ccccc3)C(c3ccccc3)=C2c2ccccc2)cc1 (configuration not stated) | > 1 µM | > 1 µM | > 1 µM | > 1 µM |
| CCc1c(C)c(=N)c2ccccc2n1C | 0.425 µM | 0.784 µM | 0.324 µM | 0.338 µM |
| COc1cccc(NC(=O)[C@H](C(C)C)n2c(=O)[nH]c3ccccc3c2=O)c1 | 0.199 µM | 0.349 µM | 0.213 µM | 0.156 µM |

| SMILES | IC50 (Plasmodium falciparum [1]) | IC50 (Plasmodium falciparum [2]) | IC50 (Plasmodium falciparum [3]) | IC50 (Plasmodium falciparum [4]) |
| --- | --- | --- | --- | --- |
| CCOC(=O)c1cn(CC)c2cc(N(C)CCc3ccc(OC)c(OC)c3)c(F)cc2c1=O |  |  | 0.345 µM | 0.085 µM |
| CCC(c1ccccc1)c1nn2c(-c3cccs3)nnc2s1 (configuration not stated) | 0.15 µM | 0.181 µM | 0.415 µM | 0.066 µM |
| CCOc1cc2c(cc1OCC)C(c1cc(OC)c(O)cc1Cl)NCC2 (configuration not stated) | 0.746 µM | 0.982 µM | 0.374 µM | 0.568 µM |
| CC1CN(C(=O)c2sc3ccccc3c2Cl)CC(C)O1 (configuration not stated) | 0.073 µM | 0.071 µM | 0.079 µM | 0.1 µM |
| CN(C)c1ccc(C=Cc2nc(=O)c3ccccc3o2)cc1 | 0.366 µM | 0.295 µM | > 0.5 µM | > 0.5 µM |
| COc1ccc(C2=C(c3ccc(OC)cc3)C3(c4ccccc4)C(=O)C2(c2ccccc2)C2C(=O)N(c4ccc(C)cc4)C(=O)C23)cc1 (configuration not stated) | > 1 µM | > 1 µM | > 1 µM | > 1 µM |
| CCOC(=O)c1c(NC(=O)c2ccccc2)sc2c(O)c(CN(CC)CC)ccc12 |  |  | > 1 µM | > 1 µM |
| CCOC(=O)C1=C(c2ccccc2)N=c2sc(=Cc3cc(C)n(-c4ccc(F)cc4)c3C)c(=O)n2C1c1cccc(OC)c1OC (configuration not stated) | > 1 µM | > 1 µM | > 1 µM | > 1 µM |
| CCC1(C)CC(CCNCc2ccccc2O)(c2ccc(C)cc2)CCO1 (configuration not stated) | 0.266 µM | 0.277 µM | 0.54 µM | 0.236 µM |
| COc1cccc(C=Cc2nc(=O)c3ccccc3o2)c1OC | > 0.5 µM | > 0.5 µM | > 0.5 µM | > 0.5 µM |
| CCCN(CCC)CC(O)COc1ccccc1C(=O)Nc1ccccc1 (configuration not stated) | 0.315 µM | 0.347 µM | 0.281 µM | 0.169 µM |
| Fc1ccc2[nH]c3c(NCCCN4CCOCC4)ncnc3c2c1 | > 1 µM | > 1 µM | > 1 µM | > 1 µM |
| COc1ccc(C(=O)Nc2nonc2-c2ccc(OC)c(OC)c2)cc1Cl | > 1 µM | > 1 µM | > 1 µM | > 1 µM |
| COc1ccc(C=C2SC(=N)N(c3ccccc3OC)C2=O)cc1 |  | 0.167 µM | 0.531 µM |  |
| CCOC(=O)c1c(C)n(-c2ccc(Cl)cc2)c2ccc(OC(=O)C=Cc3ccccc3)cc12 | > 1 µM | > 1 µM | > 1 µM | > 1 µM |
| COc1ccc2c(c1)OC(O)(C(F)(F)C(F)(F)F)CC2=O (configuration not stated) | 0.246 µM | 0.204 µM | 0.443 µM | 0.702 µM |
| C=CC12CCN(CC1)C(C(O)c1ccnc3ccc(OC)cc13)C2 (configuration not stated) | 0.021 µM | 0.04 µM |  |  |
| Cc1ccc(-c2cc3nc4c(c(O)n3n2)CCCC4)cc1 | 0.889 µM | 1.26 µM | > 1 µM | > 1 µM |
| Cc1cccc(Nc2nc(N)c3ccccc3n2)c1 | 0.283 µM | 0.332 µM | 0.299 µM | 0.23 µM |
| CCn1c(CN2CCN(Cc3ccccc3)CC2)nc2cc(NC(=O)c3cccs3)ccc21 | 0.174 µM | 0.186 µM |  |  |
| c1ccc2cc3c(Nc4ccc(N5CCOCC5)cc4)ccnc3cc2c1 | 1.44 µM | > 1 µM | > 1 µM | > 1 µM |
| Cc1cc(C)c2c(c1)OCN(Cc1ccccc1Cl)C2 | 0.276 µM | 0.362 µM |  |  |

| SMILES | IC50 (Plasmodium falciparum [1]) | IC50 (Plasmodium falciparum [2]) | IC50 (Plasmodium falciparum [3]) | IC50 (Plasmodium falciparum [4]) |
| --- | --- | --- | --- | --- |
| COc1cc(OC)c(N(C)C(=O)c2cc3c(s2)-c2ccccc2S(=O)(=O)C3)cc1Cl | > 0.5 µM | > 0.5 µM | > 0.5 µM | > 0.5 µM |
| CCCc1cc(O)c2c3c(c(=O)oc2c1)CN(C)CC3 |  |  | > 1 µM | > 1 µM |
| Cc1cc(NC(=O)C2c3ccccc3C(=O)N(CC(C)C)C2c2cccs2)no1 (configuration not stated) | 0.213 µM | 0.385 µM | 0.3 µM | 0.183 µM |
| Oc1ccccc1CNCC12CC3CC(CC(C3)C1)C2 | 0.104 µM | 0.121 µM | 0.136 µM | 0.063 µM |
| CNCCCNc1ccnc2cc(Cl)ccc12 | 0.04 µM | 0.155 µM | 0.044 µM | 0.023 µM |
| COc1ccccc1CNC(=O)CCn1c(=O)[nH]c2ccsc2c1=O | 0.367 µM | 0.432 µM |  |  |
| COc1ccc(Br)cc1C1Nc2ccc3ccccc3c2C2=C1C(=O)CC(c1ccccc1)C2 (configuration not stated) | 0.783 µM | 0.71 µM | > 1 µM | > 1 µM |
| Cc1cc(C=C2SC(=Nc3ccccc3)N(C3CCCC3)C2=O)c(C)n1-c1ccc(Cl)cc1 | > 1 µM | > 1 µM | > 1 µM | > 1 µM |
| CCc1ccc(Nc2cc(C)c3ccc(O)cc3n2)cc1 | 0.171 µM | 0.127 µM | 0.165 µM | 0.15 µM |
| COc1ccc2c(=O)cc(C(Cl)(Cl)Cl)oc2c1 | 0.942 µM | 0.789 µM | > 1 µM | > 1 µM |
| COc1ccc(-c2nc3cc(Cc4ccc5[nH]c(-c6ccc(OC)cc6)nc5c4)ccc3[nH]2)cc1 | > 1 µM | > 1 µM | > 1 µM | > 1 µM |
| Cc1cc(Nc2ccc(Cl)cc2)n2nc(C(F)(F)F)nc2n1 | 0.112 µM | 0.169 µM | 0.349 µM | 0.07 µM |
| COc1ccc(C(C)=O)cc1N1C(=O)C2C(C1=O)C1(c3ccccc3)C(=O)C2(c2ccccc2)C(c2ccc(C)cc2)=C1c1ccc(C)cc1 (configuration not stated) | > 1 µM | > 1 µM | > 1 µM | > 1 µM |
| CCCCCCOC(=O)C1=C(C)NC(=O)NC1c1ccccc1F (configuration not stated) | > 1 µM | > 1 µM | > 1 µM | > 1 µM |
| Cc1ccc(N2C3c4ccccc4N(S(=O)(=O)c4ccc(C)cc4)C2c2ccccc2N3S(=O)(=O)c2ccc(C)cc2)cc1 | > 0.5 µM | > 0.5 µM | > 0.5 µM | > 0.5 µM |
| CCCc1c(CC)c(=N)c2ccccc2n1C | 0.211 µM | 0.355 µM | 0.397 µM | 0.065 µM |
| Cc1ccc(Nc2nc(NCCO)c3ccccc3n2)cc1C | 0.186 µM | 0.325 µM | 0.238 µM | 0.219 µM |
| CCOC(=O)c1cnc2c(C)cc(C)cc2c1Nc1ccc(OC)c(OC)c1 | > 2 µM | > 2 µM | > 1 µM | > 1 µM |
| COc1ccc(NC(=O)C2c3ccccc3C(=O)N(CC(C)C)C2c2cccs2)cc1 (configuration not stated) | 0.262 µM | 0.37 µM | 0.343 µM | 0.211 µM |
| c1ccc(Cn2c(N=Nc3c(Nc4ccccc4)ccc4ccccc34)nc3ccccc32)cc1 | 0.125 µM | 0.064 µM | > 0.5 µM | > 0.5 µM |
